Data as given in the kinase profiling compilation of Christmann-Franck et al. (2016).

Legend:
Assay in all cases: radiometric filter-binding kinase assay
PRKCA (human) = PRKCA (human) (UniProt P17252)
ERBB4 (human) = ERBB4 (human) (UniProt Q15303)
LCK (mouse) = details: accession and sequence are those of the human protein
MAPKAPK2 (human) = MAPKAPK2 (human) (UniProt P49137)
MARK1 (human) = MARK1 (human) (UniProt Q9P0L2)
INSR (human) = INSR (human) (UniProt P06213)
EPHB2 (human) = EPHB2 (human) (UniProt P29323)
EPHB2 (human), sequence (P29323 whole entry, looked up): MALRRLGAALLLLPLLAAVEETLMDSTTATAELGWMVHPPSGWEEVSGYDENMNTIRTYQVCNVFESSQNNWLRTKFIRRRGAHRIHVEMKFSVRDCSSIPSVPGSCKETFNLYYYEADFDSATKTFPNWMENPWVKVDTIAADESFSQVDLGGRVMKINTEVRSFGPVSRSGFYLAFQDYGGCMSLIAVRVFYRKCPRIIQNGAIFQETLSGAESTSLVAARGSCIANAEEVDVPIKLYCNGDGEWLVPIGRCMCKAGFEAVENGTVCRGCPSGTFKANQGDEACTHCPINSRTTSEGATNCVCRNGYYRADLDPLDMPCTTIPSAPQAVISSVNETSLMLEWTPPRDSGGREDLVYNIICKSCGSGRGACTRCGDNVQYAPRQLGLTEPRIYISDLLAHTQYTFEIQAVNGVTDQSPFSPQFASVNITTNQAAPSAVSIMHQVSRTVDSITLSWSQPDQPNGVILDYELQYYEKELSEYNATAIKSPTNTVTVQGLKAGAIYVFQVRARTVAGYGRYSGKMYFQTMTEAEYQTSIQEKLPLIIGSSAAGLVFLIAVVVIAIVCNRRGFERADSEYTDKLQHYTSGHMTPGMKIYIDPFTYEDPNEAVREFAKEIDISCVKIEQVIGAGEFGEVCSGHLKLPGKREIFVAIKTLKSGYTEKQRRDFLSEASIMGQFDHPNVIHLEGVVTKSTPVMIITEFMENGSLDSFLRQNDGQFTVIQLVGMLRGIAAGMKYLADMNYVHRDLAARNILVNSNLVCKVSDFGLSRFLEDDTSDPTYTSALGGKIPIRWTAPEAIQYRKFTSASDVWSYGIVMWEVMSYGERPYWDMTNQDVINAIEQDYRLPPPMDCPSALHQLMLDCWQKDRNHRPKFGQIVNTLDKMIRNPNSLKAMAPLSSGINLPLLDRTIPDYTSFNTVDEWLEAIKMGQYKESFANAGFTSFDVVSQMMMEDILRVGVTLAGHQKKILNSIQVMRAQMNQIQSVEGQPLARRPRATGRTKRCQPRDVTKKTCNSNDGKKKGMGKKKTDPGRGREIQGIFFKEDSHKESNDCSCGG

CAMKK2 (human) = CAMKK2 (human) (UniProt Q96RR4)
INSRR (human) = INSRR (human) (UniProt P14616)
BTK (human) = BTK (human) (UniProt Q06187)
SRPK1 (human) = SRPK1 (human) (UniProt Q96SB4)
MAP2K1 (human) = MAP2K1 (human) (UniProt Q02750)
DYRK2 (human) = DYRK2 (human) (UniProt Q92630)
DYRK2 (human), sequence (Q92630 whole entry, looked up): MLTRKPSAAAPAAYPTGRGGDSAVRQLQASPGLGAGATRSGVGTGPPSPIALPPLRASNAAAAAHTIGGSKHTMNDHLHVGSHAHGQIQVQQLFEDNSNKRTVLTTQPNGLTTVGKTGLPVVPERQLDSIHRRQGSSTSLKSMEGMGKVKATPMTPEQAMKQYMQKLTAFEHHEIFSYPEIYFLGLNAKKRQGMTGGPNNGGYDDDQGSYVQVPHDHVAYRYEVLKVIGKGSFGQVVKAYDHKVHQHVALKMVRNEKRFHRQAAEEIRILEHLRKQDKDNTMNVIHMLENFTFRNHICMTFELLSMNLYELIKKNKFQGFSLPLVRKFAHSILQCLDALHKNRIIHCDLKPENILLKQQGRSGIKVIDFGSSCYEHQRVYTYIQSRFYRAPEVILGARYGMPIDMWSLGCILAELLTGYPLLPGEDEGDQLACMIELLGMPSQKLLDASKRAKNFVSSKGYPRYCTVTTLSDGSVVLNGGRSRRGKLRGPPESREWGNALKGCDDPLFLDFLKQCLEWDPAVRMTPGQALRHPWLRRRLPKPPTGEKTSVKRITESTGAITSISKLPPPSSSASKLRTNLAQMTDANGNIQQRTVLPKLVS

PRKACA (human) = PRKACA (human) (UniProt P17612)
NEK6 (human) = NEK6 (human) (UniProt Q9HC98)
NEK6 (human), sequence (Q9HC98 whole entry, looked up): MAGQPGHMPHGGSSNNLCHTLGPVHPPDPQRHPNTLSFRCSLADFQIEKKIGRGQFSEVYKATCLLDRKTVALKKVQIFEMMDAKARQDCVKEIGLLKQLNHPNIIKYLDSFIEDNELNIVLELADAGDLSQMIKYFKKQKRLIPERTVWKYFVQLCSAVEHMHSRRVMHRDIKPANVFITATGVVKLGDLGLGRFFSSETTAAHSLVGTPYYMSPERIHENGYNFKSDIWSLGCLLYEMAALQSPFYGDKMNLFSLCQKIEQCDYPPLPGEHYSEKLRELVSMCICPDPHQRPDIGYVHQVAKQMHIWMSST

CSK (human) = CSK (human) (UniProt P41240)
HIPK3 (human) = HIPK3 (human) (UniProt Q9H422)
HIPK3 (human), sequence (Q9H422 whole entry, looked up): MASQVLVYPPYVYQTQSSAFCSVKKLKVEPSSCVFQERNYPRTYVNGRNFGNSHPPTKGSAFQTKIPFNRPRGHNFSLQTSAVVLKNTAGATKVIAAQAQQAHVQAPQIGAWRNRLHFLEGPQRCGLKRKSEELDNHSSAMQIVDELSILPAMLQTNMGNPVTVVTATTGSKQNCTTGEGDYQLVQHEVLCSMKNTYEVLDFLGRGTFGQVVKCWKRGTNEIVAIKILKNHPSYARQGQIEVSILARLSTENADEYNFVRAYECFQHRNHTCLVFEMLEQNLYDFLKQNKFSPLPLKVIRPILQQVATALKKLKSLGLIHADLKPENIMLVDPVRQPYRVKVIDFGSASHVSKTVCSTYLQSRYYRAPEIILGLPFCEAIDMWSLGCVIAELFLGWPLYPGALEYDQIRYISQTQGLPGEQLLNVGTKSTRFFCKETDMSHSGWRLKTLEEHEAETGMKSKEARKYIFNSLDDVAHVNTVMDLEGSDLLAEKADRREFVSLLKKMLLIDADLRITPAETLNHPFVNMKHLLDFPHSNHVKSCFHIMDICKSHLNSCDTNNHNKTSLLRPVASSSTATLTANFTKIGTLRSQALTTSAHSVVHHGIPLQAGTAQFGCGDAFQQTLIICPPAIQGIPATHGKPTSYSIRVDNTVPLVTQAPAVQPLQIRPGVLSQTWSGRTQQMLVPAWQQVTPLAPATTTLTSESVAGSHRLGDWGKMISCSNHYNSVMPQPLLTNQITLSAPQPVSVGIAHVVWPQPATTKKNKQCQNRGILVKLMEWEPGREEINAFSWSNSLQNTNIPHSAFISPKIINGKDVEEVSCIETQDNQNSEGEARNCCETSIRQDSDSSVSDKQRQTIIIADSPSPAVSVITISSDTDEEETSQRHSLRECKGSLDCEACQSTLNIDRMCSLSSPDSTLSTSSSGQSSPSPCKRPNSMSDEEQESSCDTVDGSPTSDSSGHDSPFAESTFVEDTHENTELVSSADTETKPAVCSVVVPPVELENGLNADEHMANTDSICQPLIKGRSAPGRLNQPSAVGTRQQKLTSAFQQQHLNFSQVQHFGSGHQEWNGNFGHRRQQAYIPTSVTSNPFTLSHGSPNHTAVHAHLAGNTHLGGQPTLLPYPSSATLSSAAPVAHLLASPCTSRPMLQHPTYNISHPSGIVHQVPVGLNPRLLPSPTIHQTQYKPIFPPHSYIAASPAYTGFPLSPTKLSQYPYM

PAK7 (human) = PAK7 (human) (UniProt Q9P286)
RPS6KA5 KD1 KD2 (human) = RPS6KA5 KD1 KD2 (human) (UniProt O75582)
CaMK1 (human) = CaMK1 (human) (UniProt Q14012)
BRSK1 (human) = BRSK1 (human) (UniProt Q8TDC3)
MARK2 (human) = MARK2 (human) (UniProt Q7KZI7)
NUAK1 (human) = NUAK1 (human) (UniProt O60285)
JAK2 JH1 JH2 (human) = JAK2 JH1 JH2 (human) (UniProt O60674)
MST4 (human) = MST4 (human) (UniProt Q9P289)
PRKAA1 or PRKAA2 (rat) = details: accession and sequence are those of the human protein
EPHA4 (human) = EPHA4 (human) (UniProt P54764)
RIPK2 (human) = RIPK2 (human) (UniProt O43353)
RIPK2 (human), sequence (O43353 whole entry, looked up): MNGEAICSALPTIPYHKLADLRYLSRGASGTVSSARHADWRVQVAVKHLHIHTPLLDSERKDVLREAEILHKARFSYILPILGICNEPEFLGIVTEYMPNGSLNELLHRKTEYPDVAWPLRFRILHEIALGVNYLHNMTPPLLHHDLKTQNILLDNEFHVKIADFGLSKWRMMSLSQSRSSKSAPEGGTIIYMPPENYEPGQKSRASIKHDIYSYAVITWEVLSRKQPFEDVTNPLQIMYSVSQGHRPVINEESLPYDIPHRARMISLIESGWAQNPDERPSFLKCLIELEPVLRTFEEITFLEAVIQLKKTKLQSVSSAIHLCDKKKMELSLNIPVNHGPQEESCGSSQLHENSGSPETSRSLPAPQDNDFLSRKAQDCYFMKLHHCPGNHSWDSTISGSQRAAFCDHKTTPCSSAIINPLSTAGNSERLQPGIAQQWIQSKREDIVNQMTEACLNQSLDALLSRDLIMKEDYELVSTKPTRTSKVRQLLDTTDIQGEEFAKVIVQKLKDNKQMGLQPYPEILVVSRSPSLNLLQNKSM

MINK1 (human) = MINK1 (human) (UniProt Q8N4C8)
MKNK1 (human) = MKNK1 (human) (UniProt Q9BUB5)
MKNK1 (human), sequence (Q9BUB5 whole entry, looked up): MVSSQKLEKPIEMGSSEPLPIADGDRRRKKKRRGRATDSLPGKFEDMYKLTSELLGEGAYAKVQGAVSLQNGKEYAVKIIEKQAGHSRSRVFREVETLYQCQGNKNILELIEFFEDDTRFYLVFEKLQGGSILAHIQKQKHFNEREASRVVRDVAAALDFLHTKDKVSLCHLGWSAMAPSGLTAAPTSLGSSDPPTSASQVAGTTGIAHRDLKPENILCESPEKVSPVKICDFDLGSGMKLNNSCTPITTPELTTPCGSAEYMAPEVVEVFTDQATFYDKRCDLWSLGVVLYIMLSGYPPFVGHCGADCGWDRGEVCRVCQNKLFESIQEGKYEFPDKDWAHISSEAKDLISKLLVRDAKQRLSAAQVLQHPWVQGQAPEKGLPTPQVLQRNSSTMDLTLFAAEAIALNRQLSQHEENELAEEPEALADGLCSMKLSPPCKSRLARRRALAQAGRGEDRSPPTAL

PHKG1 (human) = PHKG1 (human) (UniProt Q16816)
NEK2 (human) = NEK2 (human) (UniProt P51955)
EPHA2 (human) = EPHA2 (human) (UniProt P29317)
MAPK15 (human) = MAPK15 (human) (UniProt Q8TD08)
CDK2 CCNA2 (human) = CDK2 CCNA2 (human) (UniProt P20248+P24941)

MARK1 (human), sequence (Q9P0L2 whole entry, looked up): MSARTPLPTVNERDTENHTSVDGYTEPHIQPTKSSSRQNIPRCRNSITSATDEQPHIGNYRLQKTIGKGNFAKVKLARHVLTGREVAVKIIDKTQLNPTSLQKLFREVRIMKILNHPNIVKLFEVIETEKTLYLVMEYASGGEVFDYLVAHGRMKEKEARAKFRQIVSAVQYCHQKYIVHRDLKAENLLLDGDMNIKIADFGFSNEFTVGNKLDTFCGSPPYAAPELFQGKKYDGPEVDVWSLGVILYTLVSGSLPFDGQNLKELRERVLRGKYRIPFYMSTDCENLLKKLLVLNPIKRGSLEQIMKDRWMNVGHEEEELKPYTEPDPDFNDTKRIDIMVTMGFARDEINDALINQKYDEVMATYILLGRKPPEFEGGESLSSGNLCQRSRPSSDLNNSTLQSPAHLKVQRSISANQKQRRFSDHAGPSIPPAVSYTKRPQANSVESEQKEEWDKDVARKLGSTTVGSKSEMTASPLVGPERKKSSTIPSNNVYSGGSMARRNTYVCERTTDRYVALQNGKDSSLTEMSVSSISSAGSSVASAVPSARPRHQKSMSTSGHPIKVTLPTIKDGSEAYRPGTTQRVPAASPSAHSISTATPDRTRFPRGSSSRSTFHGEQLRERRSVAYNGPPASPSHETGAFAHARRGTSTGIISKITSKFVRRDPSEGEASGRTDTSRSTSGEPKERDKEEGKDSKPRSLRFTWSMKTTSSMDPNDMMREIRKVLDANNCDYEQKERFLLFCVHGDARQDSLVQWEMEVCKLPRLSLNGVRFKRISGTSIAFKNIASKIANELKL

Work on NC(=O)c1ccc(-c2ccc(Oc3cncc4sc(-c5nn[nH]n5)cc34)cc2)cc1 yielded a residual activity (PRKCA (human); compound 1.0 µM) of 76%, a residual activity (PRKCA (human); compound 10.0 µM) of 30% and a residual activity (ERBB4 (human); compound 1.0 µM) of 88%. The residual activity (ERBB4 (human); compound 10.0 µM) was 73%, the residual activity (LCK (mouse); compound 1.0 µM) was 113% and the residual activity (LCK (mouse); compound 10.0 µM) was 99%. For the same compound, the residual activity (MAPKAPK2 (human); compound 1.0 µM) was 93%, the residual activity (MAPKAPK2 (human); compound 10.0 µM) was 85% and the residual activity (MARK1 (human); compound 1.0 µM) was 89%. For the same compound, the residual activity (MARK1 (human); compound 10.0 µM) was 78%, the residual activity (INSR (human); compound 1.0 µM) was 111% and the residual activity (INSR (human); compound 10.0 µM) was 108%. It also gave a residual activity (EPHB2 (human); compound 1.0 µM) of 106%, a residual activity (EPHB2 (human); compound 10.0 µM) of 99% and a residual activity (CAMKK2 (human); compound 1.0 µM) of 84%. It also gave a residual activity (CAMKK2 (human); compound 10.0 µM) of 23%, a residual activity (INSRR (human); compound 1.0 µM) of 79% and a residual activity (INSRR (human); compound 10.0 µM) of 26%. It also gave a residual activity (BTK (human); compound 1.0 µM) of 95%, a residual activity (BTK (human); compound 10.0 µM) of 71% and a residual activity (SRPK1 (human); compound 1.0 µM) of 99%. The residual activity (SRPK1 (human); compound 10.0 µM) was 48%, the residual activity (MAP2K1 (human); compound 1.0 µM) was 85% and the residual activity (MAP2K1 (human); compound 10.0 µM) was 78%. For the same compound, the residual activity (DYRK2 (human); compound 1.0 µM) was 7%, the residual activity (DYRK2 (human); compound 10.0 µM) was 2% and the residual activity (PRKACA (human); compound 1.0 µM) was 108%. It also gave a residual activity (PRKACA (human); compound 10.0 µM) of 72%, a residual activity (NEK6 (human); compound 1.0 µM) of 98% and a residual activity (NEK6 (human); compound 10.0 µM) of 94%. For the same compound, the residual activity (CSK (human); compound 1.0 µM) was 86%, the residual activity (CSK (human); compound 10.0 µM) was 100% and the residual activity (HIPK3 (human); compound 1.0 µM) was 96%. For the same compound, the residual activity (HIPK3 (human); compound 10.0 µM) was 10%, the residual activity (PAK7 (human); compound 1.0 µM) was 81% and the residual activity (PAK7 (human); compound 10.0 µM) was 66%. The residual activity (RPS6KA5 KD1 KD2 (human); compound 1.0 µM) was 90%, the residual activity (RPS6KA5 KD1 KD2 (human); compound 10.0 µM) was 20% and the residual activity (CaMK1 (human); compound 1.0 µM) was 105%. For the same compound, the residual activity (CaMK1 (human); compound 10.0 µM) was 85%, the residual activity (BRSK1 (human); compound 1.0 µM) was 110% and the residual activity (BRSK1 (human); compound 10.0 µM) was 90%. For the same compound, the residual activity (MARK2 (human); compound 1.0 µM) was 80%, the residual activity (MARK2 (human); compound 10.0 µM) was 83% and the residual activity (NUAK1 (human); compound 1.0 µM) was 92%. It also gave a residual activity (NUAK1 (human); compound 10.0 µM) of 78%, a residual activity (JAK2 JH1 JH2 (human); compound 1.0 µM) of 97% and a residual activity (JAK2 JH1 JH2 (human); compound 10.0 µM) of 74%. For the same compound, the residual activity (MST4 (human); compound 1.0 µM) was 93%, the residual activity (MST4 (human); compound 10.0 µM) was 61% and the residual activity (PRKAA1 or PRKAA2 (rat); compound 1.0 µM) was 77%. The residual activity (PRKAA1 or PRKAA2 (rat); compound 10.0 µM) was 49%, the residual activity (EPHA4 (human); compound 1.0 µM) was 103% and the residual activity (EPHA4 (human); compound 10.0 µM) was 112%. It also gave a residual activity (RIPK2 (human); compound 1.0 µM) of 94%, a residual activity (RIPK2 (human); compound 10.0 µM) of 22% and a residual activity (MINK1 (human); compound 1.0 µM) of 84%. The residual activity (MINK1 (human); compound 10.0 µM) was 21%, the residual activity (MKNK1 (human); compound 1.0 µM) was 100% and the residual activity (MKNK1 (human); compound 10.0 µM) was 84%. For the same compound, the residual activity (PHKG1 (human); compound 1.0 µM) was 100%, the residual activity (PHKG1 (human); compound 10.0 µM) was 84% and the residual activity (NEK2 (human); compound 1.0 µM) was 94%. The residual activity (NEK2 (human); compound 10.0 µM) was 80%, the residual activity (EPHA2 (human); compound 1.0 µM) was 94% and the residual activity (EPHA2 (human); compound 10.0 µM) was 89%. For the same compound, the residual activity (MAPK15 (human); compound 1.0 µM) was 85%, the residual activity (MAPK15 (human); compound 10.0 µM) was 2% and the residual activity (CDK2 CCNA2 (human); compound 1.0 µM) was 91%. The residual activity (CDK2 CCNA2 (human); compound 10.0 µM) was 105%.
